Test results: patent US5968933A, “DNA-targeted alkylating agents” (Auckland Division Cancer Society of New Zealand Inc., priority 1994, dated 1999)
Like-named read-outs stand apart in the source and are kept apart here.

Key:
[1] = test system: P388 cells; experiment: Growth inhibition in vitro, P388 leukaemia; type: cell-based, murine
Protocol: (§1) Representative examples of compounds of the invention were tested for biological activity against tumors. Compounds 1 to 6 and 14 to 21, prepared as described above, were tested for their ability to inhibit growth in vitro of cells of the wild-type murine leukaemia cell line P388, and the cell line AA8 which is derived from Chinese hamster ovary cells. For each compound, the IC50, ie. the concentration of compound which inhibited cell growth in treated cultures to 50% of that of controls, was determined, using means of three determinations. In addition, a hypersensitivity factor was determined by comparing activity of the compounds against AA8 cells to activity against UV4. The latter cell line is deficient in aspects of the excision repair pathway for removing DNA adducts, and is hypersensitive to DNA-alkylating agents, especially interstrand crosslinking agents. Previous work has shown that the ratio of IC50 s determined in the wild-type AA8 and mutant UV4 lines (the hypersensitivity factor HF) is a determinant of the mode of cell killing by alkylating agents (Palmer, B. D. et al, J. Med. Chem., 1990 33 112-121; Wilson, W. R. et al, J. Med. Chem., 1989 32 31-38). Compounds with HFs of ca. 1 are unlikely to kill cells via DNA alkylation events. Compounds which show high HF values are likely to form bulky adducts or cross-links,with the latter being especially likely for compounds showing the highest HF values (>ca. 25) (Wilson et al, op. cit.).
(§2) Cell lines were maintained in exponential growth phase by subculturing in RPMI 1640 (P338) or Alpha MEM (AA8, UV4) containing 10% fetal calf serum, as previously described (Palmer et al, op.cit.; Baguley, B. C. and Wilson, W. R., Eur. J. Cancer Clin. Oncol., 1987 23 607-613). IC50 values were determined using log-phase cultures in 96-well microculture plates, and were calculated as the nominal drug concentration required to reduce the cell density to 50% of control values, using 8 control cultures on each microplate. For P388 cultures, drug was present throughout the growth period (72 h), and final cell densities were determined using a minor modification of the MTT method of Mossman (Mossman, T., J. Immunol. Methods, 1983 65 55-63). For AA8 and UV4 cultures, drug exposure was terminated after 18 h by washing three times with fresh medium. Cultures were then grown for a further 72 h before determining cell density by staining with methylene blue (Finlay, G. J. et al, Anal. Biochem., 1984 139 272-277).

[2] = test system: AA8 cells; experiment: Growth inhibition in vitro, AA8; type: cell-based, Chinese hamster; conditions: Cricetulus griseus, CHO-AA8
Protocol: as §1, §2

[3] = test system: AA8 and UV4 cells; experiment: Hypersensitivity factor (AA8/UV4 IC50 ratio); type: cell-based, Chinese hamster; conditions: ratio of IC50s AA8/UV4
Protocol: as §1, §2

[4] = test system: P338 murine leukaemia; type: in vivo, mice
[5] = test system: S. typhimurium TA98; experiment: Bacterial mutagenicity, plate incorporation assay, TA98; conditions: mean ± SD
[6] = test system: S. typhimurium TA100; experiment: Bacterial mutagenicity, plate incorporation assay, TA100; conditions: mean ± SD
[7] = test system: S. typhimurium TA102; experiment: Bacterial mutagenicity, plate incorporation assay, TA102; conditions: mean ± SD
[8] = P388 cells, 72 h, MTT, read-out: IC50

SMILES: CCN(CCCl)c1ccc(CCCc2nc3ccc(-c4nc5ccc(N6CCN(C)CC6)cc5[nH]4)cc3[nH]2)cc1 [Compound 14]
- IC50 ([1]; Mus musculus, P388, 72 h): 740 nM

SMILES: CCN(CCCl)c1ccccc1CCCc1nc2ccc(-c3nc4ccc(N5CCN(C)CC5)cc4[nH]3)cc2[nH]1 [Compound 21, 2-[2-[3-[2-(N-ethyl-N-(2chloroethyl)amino)phenyl]propyl]-5-benzimidazolyl]-5-(1-methyl-4-piperazinyl)-benzimidazole]
- IC50 ([1]; Mus musculus, P388, 72 h): < 60 nM

SMILES: CCN(CCCl)c1ccc(CCCCCCc2nc3ccc(-c4nc5ccc(N6CCN(C)CC6)cc5[nH]4)cc3[nH]2)cc1 [Compound 16, 2-[2-[6-[4-(N-ethyl-N-(2-chloroethyl)amino)phenyl]hexyl]-5-benzimidazolyl]-5-(1-methyl-4-piperazinyl)benzimidazole]
- IC50 ([1]; Mus musculus, P388, 72 h): 370 nM

SMILES: CN1CCN(c2ccc3nc(-c4ccc5nc(-c6ccc(N(C)CCCl)cc6)[nH]c5c4)[nH]c3c2)CC1 [Compound 1, 2-[2-[4-(N-methyl-N-(2-chloroethyl)amino)phenyl]-5-benzimidazolyl]-5-(1-methyl-4-piperazinyl)benzimidazole]
- IC50 ([1]; Mus musculus, P388, 72 h): 500 nM
- IC50 [2]: 5750 nM
- Hypersensitivity factor [3]: 14
- Optimal dose ([4]; single i.p. dose): 30 mg/kg
- % Increase in lifespan ([4]; single i.p. dose 24 h after tumour inoculation, at optimal dose (mg/kg: 1 30; 2 30; 3 13.3; 4 3.9; 5 5.9; 6 8.9)): 86%
- reversion colonies, TA98 ([5]; 4 μg/plate): 70 ± 3
- reversion colonies, TA98 ([5]; 10 μg/plate): 62 ± 7
- reversion colonies, TA98 ([5]; 20 μg/plate): 67 ± 9
- reversion colonies, TA98 ([5]; 40 μg/plate): 52 ± 7
- reversion colonies, TA98 ([5]; 80 μg/plate, square brackets: toxicity becoming apparent): 65 ± 3
- reversion colonies, TA100 ([6]; 4 μg/plate): 196 ± 23
- reversion colonies, TA100 ([6]; 10 μg/plate): 162 ± 21
- reversion colonies, TA100 ([6]; 20 μg/plate): 172 ± 13
- reversion colonies, TA100 ([6]; 40 μg/plate): 226 ± 23
- reversion colonies, TA100 ([6]; 80 μg/plate): 207 ± 12
- reversion colonies, TA102 ([7]; 4 μg/plate): 406 ± 20
- reversion colonies, TA102 ([7]; 10 μg/plate): 417 ± 26
- reversion colonies, TA102 ([7]; 20 μg/plate): 442 ± 62
- reversion colonies, TA102 ([7]; 40 μg/plate, square brackets: toxicity becoming apparent): 442 ± 43

SMILES: CCN(CCCl)c1cccc(CCCc2nc3ccc(-c4nc5ccc(N6CCN(C)CC6)cc5[nH]4)cc3[nH]2)c1 [Compound 19, 2-[2-[3-[3-(N-ethyl-N-(2-chloroethyl)amino)phenyl]propyl]-5-benzimidazolyl]-5-(1-methyl-4-piperazinyl)-benzimidazole]
- IC50 ([1]; Mus musculus, P388, 72 h): < 60 nM

SMILES: CCN(CCCl)c1ccc(Cc2nc3ccc(-c4nc5ccc(N6CCN(C)CC6)cc5[nH]4)cc3[nH]2)cc1 [Compound 17, 2-[2-[[4-(N-ethyl-N-(2-chloroethyl)amino)phenyl]methyl]-5-benzimidazoyl]-5-(1-methyl-4-piperazinyl)benzimidazole]
- IC50 ([1]; Mus musculus, P388, 72 h): 90 nM

SMILES: CN1CCN(c2ccc3nc(-c4ccc5nc(CCCc6cccc(N(CCCl)CCCl)c6)[nH]c5c4)[nH]c3c2)CC1 [Compound 18]
- IC50 [1, 8]: > 1000 nM

SMILES: CN1CCN(c2ccc3nc(-c4ccc5nc(CCCc6ccccc6N(CCCl)CCCl)[nH]c5c4)[nH]c3c2)CC1 [Compound 20]
- IC50 [1, 8]: 610 nM

SMILES: CCN(CCCl)c1ccc(CCc2nc3ccc(-c4nc5ccc(N6CCN(C)CC6)cc5[nH]4)cc3[nH]2)cc1 [Compound 15, 2-[2-[2-[4-(N-Ethyl-N-(2-chloroethyl)amino)phenyl]ethyl]-5-benzimidazoyl]-5-(1-methyl-4-piperazinyl)benzimidazole]
- IC50 ([1]; Mus musculus, P388, 72 h): 120 nM
